Assay results: US11851391B2, “Antifungal compounds and methods of forming the same” (University of Kentucky Research Foundation, priority 2018, dated 2023)
In brackets after ≈: the same amount, converted by molar mass. Where two headings read alike, the source gives them in different places.

Legend:
[1] = tested on: Candida parapsilosis ATCC 22019 (strain J); assay: MIC determination, in vitro antifungal assay (CLSI M27-A3); assay type: cell-based; conditions: Lodderomyces parapsilosis, ATCC22019, strain J; MIC-2 (50% growth inhibition), reported for VOR; read-out: MIC
In short: (§1)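 Yeast from a single colony is grown overnight in YPD at 35° C with shaking, adjusted to OD600 0.12, then diluted into RPMI 1640 to 2-4×10^3 CFU/mL. Compounds are tested by modified CLSI M27-A3 microdilution, DMSO <1.25%, and MIC is scored as complete inhibition.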

[2] = tested on: Candida albicans ATCC 10231(R) (strain A); assay: as above; assay type: cell-based; conditions: Candida albicans, ATCC10231, 48 h, MIC-0 (no visible growth), 48 h at 35° C., read-out: MIC
In short: as §1

[3] = tested on: Aspergillus terreus ATCC MYA-3633 (strain M); assay: MIC determination against filamentous fungi (CLSI M38-A2); assay type: cell-based; conditions: Aspergillus terreus, 48 h, MIC-0, 48 h at 35° C., read-out: MIC
In short: (§2)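 Broth microdilution followed CLSI M38-A2 in RPMI 1640 buffered to pH 7.0 with 0.165 M MOPS. Spores were harvested from PDA cultures, counted by hemocytometer and added at 5×10^5 CFU/mL final, then incubated 48 h at 35° C. MIC was taken as complete growth inhibition versus growth control (MIC-0), run in triplicate.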

[4] = tested on: Aspergillus nidulans ATCC 38163 (strain L); assay: as above; assay type: cell-based; conditions: Aspergillus nidulans, ATCC38163, 48 h, MIC-0, 48 h at 35° C., read-out: MIC
In short: as §2

[5] = tested on: Aspergillus flavus ATCC MYA-3631 (strain K); assay: as above; assay type: cell-based; conditions: Aspergillus flavus, 48 h, MIC-0, 48 h at 35° C., read-out: MIC
In short: as §2

[6] = tested on: C. albicans ATCC MYA-2310(S) (strain E); assay: MIC determination, in vitro antifungal assay (CLSI M27-A3); assay type: cell-based, Candida albicans; conditions: Candida albicans, MIC-2 (50% growth inhibition), reported for VOR, read-out: MIC
In short: as §1

[7] = tested on: C. albicans ATCC 64124(R) (strain B); assay: as above; assay type: cell-based, Candida albicans; conditions: Candida albicans, ATCC64124, strain B; MIC-2 (50% growth inhibition), reported for VOR; read-out: MIC
In short: as §1

[8] = tested on: C. albicans ATCC MYA-1237(R) (strain F); assay: as above; assay type: cell-based, Candida albicans; conditions: Candida albicans, MIC-2 (50% growth inhibition), reported for VOR, read-out: MIC
In short: as §1

[9] = tested on: C. albicans ATCC 90819(R) (strain D); assay: as above; assay type: cell-based; conditions: Candida albicans, ATCC90819, strain D; MIC-2 (50% growth inhibition), reported for VOR
[10] = tested on: murine red blood cells (mRBCs); conditions: mouse, 60 min
Description: Thus, the hemolytic activity for these bishydrazones was investigated against murine red blood cells (mRBCs).
Murine red blood cells (mRBCs) were prepared by suspending 1 mL of murine blood in 3 mL of PBS prior to centrifugation at 1,000 rpm for 5 min. The mRBCs were washed four times in PBS and resuspended in the same buffer to a final concentration of 10^7 mRBC/mL. […] The tubes were incubated at 37° C. for 60 min. […] Eppendorf tubes containing 200 μL of ddH2O and 2 μL of 1% v/v Triton™ X-100 served as negative (blank) and positive controls, respectively. The percentage of hemolysis was calculated using the following equation: % hemolysis=[(absorbance of sample)−(absorbance of blank)]×100/(absorbance of positive control).

MIC [1]: 1.95 µg/mL (≈ 5.58 µM) | MIC [2]: 0.975 µg/mL (≈ 2.79 µM) | MIC [3]: > 31.3 µg/mL | MIC [4]: > 31.3 µg/mL | MIC [5]: > 31.3 µg/mL | MIC [6]: 0.12 µg/mL (≈ 0.344 µM) | MIC [7]: 0.24 µg/mL (≈ 0.687 µM) | MIC [8]: 0.24 µg/mL (≈ 0.687 µM) | MIC [9]: 0.12 µg/mL (≈ 0.344 µM)
Compound: C[C@@H](c1ncncc1F)[C@](O)(Cn1cncn1)c1ccc(F)cc1F [VOR, voriconazole, reference compound]
Percentage of hemolysis (±SDEV) ([10]; 0.975 μg/mL): 10.3 ± 2.1% | Percentage of hemolysis (±SDEV) ([10]; 1.95 μg/mL): 6.3 ± 1.9% | Percentage of hemolysis (±SDEV) ([10]; 3.9 μg/mL): 7.5 ± 0.5% | Percentage of hemolysis (±SDEV) ([10]; 7.8 μg/mL): 11.4 ± 10.9% | Percentage of hemolysis (±SDEV) ([10]; 15.6 μg/mL): 2.8 ± 1.3%
